# Test results from US20080200393A1, “Method and Composition For Treating Angiogenesis and For Preventing Cancer Progression and Metastasis Comprising a Prostate Secretory Protein (Psp94) Family Member” (Ambrillia Biopharma Inc., priority 2004, published 2008).
# Where no end group is shown, it is not given here. The star is where a group is joined. Acm = CC(=O)NC*
# T1: FSH receptor (Homo sapiens, UniProt P23945)
# T1 construct: host or cells: testicular membrane preparations
# T1 sequence (P23945 18-695): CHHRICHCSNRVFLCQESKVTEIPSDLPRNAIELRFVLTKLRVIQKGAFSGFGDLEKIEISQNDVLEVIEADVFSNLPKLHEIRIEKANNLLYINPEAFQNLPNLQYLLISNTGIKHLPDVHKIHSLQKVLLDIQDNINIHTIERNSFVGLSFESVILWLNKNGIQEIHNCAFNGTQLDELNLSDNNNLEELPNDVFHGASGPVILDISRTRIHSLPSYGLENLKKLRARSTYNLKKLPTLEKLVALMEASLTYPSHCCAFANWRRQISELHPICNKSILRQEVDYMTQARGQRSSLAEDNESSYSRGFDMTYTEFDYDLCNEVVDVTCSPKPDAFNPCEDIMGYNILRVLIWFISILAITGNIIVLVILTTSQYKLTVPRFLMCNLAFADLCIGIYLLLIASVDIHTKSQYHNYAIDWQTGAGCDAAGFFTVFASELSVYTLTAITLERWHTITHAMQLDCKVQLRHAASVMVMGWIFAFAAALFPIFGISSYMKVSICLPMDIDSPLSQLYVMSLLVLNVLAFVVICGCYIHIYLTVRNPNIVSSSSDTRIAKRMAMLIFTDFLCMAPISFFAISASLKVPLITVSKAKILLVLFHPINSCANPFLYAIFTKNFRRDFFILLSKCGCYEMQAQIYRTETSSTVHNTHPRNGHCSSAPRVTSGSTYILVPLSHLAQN
# What was measured:
# proMMP-2 = test: Gelatin zymography of HUVEC conditioned media; assay type: cell-based, Human; settings: HUVEC, serum-free media
# Experimental: Zymography. Zymography is a technique generally used to analyze the activity of matrix metalloproteinases (MMPs) in biological samples. It involves the electrophoretic separation of proteins under denaturing (Sodium Dodecyl Sulfate (SDS)) but non-reducing conditions through a polyacrylamide gel containing gelatin (for example, 10% gel containing 1 mg/ml gelatin for MMP-9 and MMP-2 assays). The resolved proteins are re-natured by exchanging SDS with a non-ionic detergent such as Triton X-100 and the gel is incubated in an incubation buffer for activation of MMP-2 and MMP-9 (for example at 37° C. for 18 hrs). The gel is stained with Coomassie blue and the MMP-2 and MMP-9 bands may be visualized as clear bands against a blue background (i.e., the MMPs degrade the gelatin and are visualized as clear bands; pro MMP-2 is 68 kDa and pro-MMP-9 is 92 kDa). These bands can be quantified using densitometry. For example, prior to stimulation, quiescent HUVEC were serum-starved for 16 h in the presence or absence of PCK3145 or PD98059 and then stimulated with VEGF. The conditioned media were collected 24 h after stimulation, and clarified by centrifugation. Identical volume of conditioned media were mixed with non reducing Laemmli sample buffer and subjected to 7.5% SDS-polyacrylamide gels containing 1 mg/ml gelatin (Sigma). The gels were then incubated for 30 min at room temperature twice in 2.5% (v/v) Triton X-100 and rinsed five times in doubly distilled water. The gels were incubated at 37° C. for a further 18 h in 200 mM NaCl/5 mM CaCl2/0.02% (v/v) Brij-35/50 mM Tris/HCl buffer (pH 7.6), then stained with 0.1% Coomassie Brilliant Blue R-250, followed by destaining in 10% (v/v) acetic acid/30% (v/v) methanol in water. Gelatinolytic activity was detected as unstained bands on a blue background.
# The effect of the PCK3145 derivative (SEQ ID NO.:7) on MMP extracellular levels was thus assessed by gelatin-zymography in the conditioned media of serum-starved HUVEC. After 16 hours of starvation, HUVEC were stimulated with VEGF in the presence or not of the PCK3145 derivative. […]
# ERK [1] = test: Intrinsic effect on ERK phosphorylation (Western blot); assay type: cell-based
# Experimental: The induction of the MAPK pathway by the PCK3145 derivative is further confirmed by the rapid and transient induction of ERK phosphorylation between 5-10 minutes (FIG. 8B) and is shown to be dose-dependent (FIG. 8C). Finally, the effects of the PCK3145 derivative were also compared to those of a scrambled peptide.
# HUVEC = HUVEC migration assay (modified Boyden chambers, gelatin-coated filters); assay type: cell-based, Human; settings: 300 μg/ml
# Experimental: Migration Assays. Transwells filters (8-μm pore size; Costar, Cambridge, Mass.) were pre-coated with 0.5% gelatin/PBS for 24 h at 4° C. The transwells were then washed with PBS and assembled in 24-well plates. The upper chamber of each transwell was filled with 100 μl of HUVEC (1×10^6 cells/ml) and cells were allowed to adhere for 1 h. Cells were then treated for 2 h by adding 100 μl of 2-fold concentrated drug solution prepared in serum-free medium into the upper chamber and 600 μl of the drug solution into the lower chamber. Migration was initiated by adding VEGF (10 ng/ml), or S1P (1 μM) to the lower chamber. The plate was placed at 37° C. in 5% CO2/95% air for 4 h. Cells that had migrated to the lower surface of the filters were fixed with 10% formalin phosphate and stained with 0.1% Crystal Violet/20% (v/v) methanol. The migration was quantified using computer-assisted imaging and data are expressed as the average density of migrated cells per four fields (magnification×50).
# Cells were plated onto gelatin-coated filters inserted in modified Boyden chemotactic chambers. The effect of PCK3145 on basal migration and on VEGF-induced migration was monitored by the number of cells that had migrated comparatively to untreated control cells. HUVEC were dislodged from the flasks by trypsinization, washed and resuspended in serum-free media. Cells were placed onto gelatin-coated filters inserted in chambers and incubated at 37° C., 5% CO2 for 30 min to allow adequate anchoring to the filters. The monolayers were then exposed to serum-free media containing PCK3145 (300 μg/ml) added within the upper and lower compartment of the chambers. After 2 h, VEGF (50 ng/ml) was added in the lower chamber as a chemoattractant. Cell migration was allowed to proceed for another 3 h. Filters were then fixed, stained, and the migrated cells quantified by microscopy as described in the Methods section. […] The effect of. PCK on S1P-induced HUVEC migration was also measured, but no inhibition was observed (not shown) in this particular assay.
# ERK [2] = test: Induced ERK phosphorylation in HUVEC (Western blot); assay type: cell-based, Human
# Experimental: Cell culture. Human umbilical vein endothelial cells (HUVEC) and pulmonary aortic smooth muscle cells (PASMC) were obtained from Clonetics and maintained in endothelial cell basal medium-2 (EBM-2; Clonetics) and smooth muscle medium-2 (SmGM-2; Clonetics), respectively. Cells were cultured at 37° C. under a humidified atmosphere containing 5% CO2. For experimental purposes, cells were plated in 8 100-mm plastic dishes at 5,000 cells/cm^2 and were grown to confluence before overnight serum starvation. Cells were treated with vehicle or with a PCK3145 derivative diluted in 0.1 N NaOH, and stimulated with 50-100 ng/ml VEGF or PDGF, with 10 ng/ml of bFGF (basic fibroblast growth factor) or with 1 μM S1P (sphingosine-1-phosphate).
# (§1) Immunoprecipitation and immunoblotting procedures. After treatment, cells were washed once with phosphate-buffered saline (PBS) containing 1 mM sodium orthovanadate and were incubated in the same medium for 1 h at 4° C. The cells were solubilized on ice in lysis buffer (150 mM NaCl, 10 mM Tris-HCl, pH 7.4, 1 mM EDTA, 1 mM EGTA, 0.5% Nonidet P-40, 1% Triton X-100) containing 1 mM sodium orthovanadate. The cells were then scraped from the culture dishes and the resulting lysates were clarified by centrifugation at 10,000 g for 10 min; Protein concentrations were determined using the micro bicinchoninic acid method (Pierce). For immunoprecipitation studies, lysates were clarified by a 1 h incubation at 4° C. with a mixture of Protein A/Protein G Sepharose beads. After removal of the Sepharose beads by low-speed centrifugation, identical amounts of protein (200 μg) from each sample were transferred to fresh tubes and incubated in lysis buffer overnight at 4° C. in the presence of 2 μg/ml of specific antibodies. Immunocomplexes were collected by incubating the mixture with 25 μl (50% suspension) of Protein A- (rabbit primary antibody) or Protein G- (mouse primary antibody) Sepharose beads, for 2 h. Nonspecifically-bound material was removed by washing the beads three times in 1 ml of lysis buffer containing 1 mM sodium orthovanadate, and bound material was solubilized in 25 μl of two-fold concentrated Laemmli sample buffer (125 mM Tris-HCl (pH 6.8), 20% glycerol, 4% SDS, 10% β-mercaptoethanol, and 0.00125% bromphenol blue), boiled 5 min, and resolved by SDS-PAGE. The proteins were transferred onto polyvinylidene difluoride (PVDF) membranes, blocked 1 h at room temperature with Tris-buffered saline/Tween 20 (147 mM NaCl, 20 mM Tris/HCl, pH 7.5, and 0.1% Tween 20) containing 2% bovine serum albumin and incubated overnight at 4° C. with primary antibody. […] The immunoreactive bands were quantified by scanning densitometry (Molecular Dynamics).
# VEGF is a strong activator of ERKs (Extracellular-signal-Regulated protein Kinases) 1 and 2 via VEGF receptor 2. In order to test the ability of the PCK3145 derivative in potentially antagonizing VEGF-mediated ERK phosphorylation, serum-starved quiescent endothelial cells (HUVEC) were incubated with vehicle (phosphate-buffered saline (PBS) pH 7.4) or PCK3145 derivative (300 μg/ml) for 24 h and then stimulated with VEGF, bFGF (basic Fibroblast Growth Factor) or S1P (sphingosine-1-phosphate). Cells were washed with PBS containing NaF/Na3VO4 and incubated in the same medium buffer for 1 h at 4° C. The cells were scraped from the culture dishes and the resulting lysates clarified by centrifugation. Western blotting and immunodetection using anti-phosphoERK and anti-ERK antibodies was then performed.
# VEGFR-2 = biological target: T2, VEGFR-2 (Homo sapiens, UniProt P35968); test: VEGF-induced VEGFR-2 phosphorylation in HUVEC (immunoprecipitation, Western blot); assay type: cell-based
# T2 construct: host or cells: HUVEC
# Experimental: as §1, with “SDS-PAGE.” for “SDS-PAGE. The proteins were transferred onto polyvinylidene difluoride (PVDF) membranes, blocked 1 h at room temperature with Tris-buffered saline/Tween 20 (147 mM NaCl, 20 mM Tris/HCl, pH 7.5, and 0.1% Tween 20) containing 2% bovine serum albumin and incubated overnight at 4° C. with primary antibody.”
# The multifunctionality of VEGF at the cellular level results from its ability to initiate a diverse, complex and integrated network of signaling pathways via its major receptor, VEGFR-2. […] After each treatment, equal amounts of protein were immunoprecipitated with anti-VEGFR-2 polyclonal antibodies and analysed by Western blotting.
# tumor cells = settings: U.S. Pat. No. 5,428,011; cited from earlier work
# skeletal metastasis = settings: WO03/039576; cited from earlier work
# FSH = settings: Thakur et al., 1981; cited from earlier work
# FSH receptor = biological target: T1, FSH receptor; settings: testicular membrane preparations; Vijayalakshmi et al., 1981; cited from earlier work
# T2 sequence (P35968 20-1356): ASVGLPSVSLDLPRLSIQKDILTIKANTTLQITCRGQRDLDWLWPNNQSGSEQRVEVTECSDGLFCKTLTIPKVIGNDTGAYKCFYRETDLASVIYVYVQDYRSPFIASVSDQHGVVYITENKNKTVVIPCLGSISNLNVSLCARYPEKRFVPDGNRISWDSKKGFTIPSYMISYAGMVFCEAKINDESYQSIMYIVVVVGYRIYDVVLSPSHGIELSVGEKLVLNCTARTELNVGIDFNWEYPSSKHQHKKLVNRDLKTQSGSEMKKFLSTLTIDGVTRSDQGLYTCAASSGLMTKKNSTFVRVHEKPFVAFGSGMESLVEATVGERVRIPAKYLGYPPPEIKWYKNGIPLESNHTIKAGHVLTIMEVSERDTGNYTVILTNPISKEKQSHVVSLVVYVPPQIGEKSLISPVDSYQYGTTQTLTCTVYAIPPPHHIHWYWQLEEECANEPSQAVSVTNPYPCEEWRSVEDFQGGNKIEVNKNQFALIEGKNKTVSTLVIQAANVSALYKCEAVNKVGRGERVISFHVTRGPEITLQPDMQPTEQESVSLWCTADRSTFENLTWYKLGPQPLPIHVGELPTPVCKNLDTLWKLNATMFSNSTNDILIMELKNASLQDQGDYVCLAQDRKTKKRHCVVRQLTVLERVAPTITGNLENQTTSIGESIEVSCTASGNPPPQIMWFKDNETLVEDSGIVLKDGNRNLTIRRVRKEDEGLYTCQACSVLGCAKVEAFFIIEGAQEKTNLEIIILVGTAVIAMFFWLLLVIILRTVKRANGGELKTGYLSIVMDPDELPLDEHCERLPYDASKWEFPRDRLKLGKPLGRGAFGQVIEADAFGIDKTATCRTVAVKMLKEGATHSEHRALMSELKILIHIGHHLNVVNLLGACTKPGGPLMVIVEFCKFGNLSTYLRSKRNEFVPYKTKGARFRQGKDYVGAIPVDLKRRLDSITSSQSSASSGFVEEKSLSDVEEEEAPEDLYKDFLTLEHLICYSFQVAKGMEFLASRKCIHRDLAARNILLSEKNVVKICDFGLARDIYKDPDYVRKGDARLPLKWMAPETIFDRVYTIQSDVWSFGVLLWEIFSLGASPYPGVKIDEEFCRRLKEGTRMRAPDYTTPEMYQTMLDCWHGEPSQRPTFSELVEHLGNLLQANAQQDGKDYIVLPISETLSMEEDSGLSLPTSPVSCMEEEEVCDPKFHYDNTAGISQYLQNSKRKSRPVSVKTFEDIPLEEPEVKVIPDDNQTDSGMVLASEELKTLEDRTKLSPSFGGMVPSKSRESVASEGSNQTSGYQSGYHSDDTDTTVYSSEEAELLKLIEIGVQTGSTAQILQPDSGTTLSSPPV
molecule,measurement,setting,value
"COc1cccc(-c2cc(=O)c3ccccc3o2)c1N [PD98059, reference compound]",VEGF-induced proMMP-2 extracellular levels,proMMP-2,significantly decreased
same,induction of ERK phosphorylation by the PCK3145 derivative,ERK [1]; MAPK inhibitor added,antagonized
"EWQTDNCETCTCYET (cysteine pairing not given here) [PCK3145, PSP94 fragment, 15 amino acids]",basal cell migration,HUVEC,no significant effect
same,VEGF-induced cell migration,HUVEC; VEGF 50 ng/ml,no significant effect
"TC(Acm)ENC(Acm)TETQWC(Acm)ETDY [scrambled peptide, reference compound]","VEGF-induced ERK phosphorylation, negative control",ERK [2],lack of effect
same,"VEGF-induced VEGFR-2 phosphorylation, negative control",VEGFR-2,lack of effect
same,induction of ERK phosphorylation,ERK [1]; compared to the PCK3145 derivative,unable to induce
"PSP94: Prostate secretory protein of human seminal fluid, 10.7 kDa, 10 cysteine residues; wild type, 94 amino acids (protein, UniProt P08118 21-114, looked up) Beta-microseminoprotein: SCYFIPNEGVPGDSTRKCMDLKGNKHPINSEWQTDNCETCTCYETEISCCTLVSTPVGYDKDNCQRIFKKEDCKYIVVEKKDPKKTCSVSEWII",growth of tumor cells,tumor cells,inhibits
same,development of skeletal metastasis,skeletal metastasis,reduces
same,FSH levels,FSH,lower
same,binding of FSH to its receptor,FSH receptor,interfere
